Measurements reported in paper PMC7156724, “Potent BRD4 inhibitor suppresses cancer cell-macrophage interaction” (Nature Communications, 2020).
“And” between values parts separate entries of the source, which are not always exact repeats. Identical values can stand only once.

Legend:
[1] = tested on: A2780 cells; assay: MTT cell growth assay, A2780; format: cell-based, human; settings: 5 days
Experimental: Fig. 2 NHWD-870 inhibited BRD4 phosphorylation and c-MYC expression, and suppressed cell growth. a Representative western blot analysis of p-BRD4 (s484/488), BRD4, c-MYC, and GAPDH after treatment of MDA-MB231, SUM159, A2780 ES-2, and H526 cells with JQ-1 or NHWD-870 at the indicated concentrations for 24 h. GAPDH served as the loading control. Selected from three independent experiments. b MTT assays of H526, A2780, ES-2, and MDA-MB231 cells treated with JQ-1 or NHWD-870 at the indicated concentrations for 5 days. Data are presented as mean ± SEM from three independent experiments. c, d Clonogenic assays of H526, A2780, ES-2 and MDA-MB231 cells treated with 250 nM JQ-1 or NHWD-870 for 5 days. Shown are representative images (c) and quantification of colonies (d). […] Shown are representative images (e) and quantification of relative colony sizes (f). Scale bar, 50 μm. Data are presented as mean ± SEM from five independent experiments. p values were calculated using two-tailed, unpaired t tests in this figure. **p < 0.01; ***p < 0.001. Source data are provided as a Source Data file.
37℃, 5% CO2. […]

[2] = tested on: B16F10 mouse melanoma; assay: B16F10 mouse melanoma syngeneic model tumor growth; format: in vivo, C57BL/6 mice; settings: B16F10 mouse melanoma, once daily 11 days, NHWD-870-HCl
From the text: PO, oral administration; QD, once daily; BID, twice daily. b–d Tumor growth curves for A2780 ovarian tumor (n = 5) (b), TMD8 large B cell lymphoma (n = 6) (c), and B16F10 melanoma (n = 5) (d) bearing mice treated with the indicated compounds once daily for 11-21 days. e, f Tumor growth curves for A375 melanoma (n = 6) (e), and patient-derived xenograft (PDX) of melanoma (n = 5) (f) bearing mice treated with the indicated compounds once daily (5 days on, 2 days off) for 21 days. For d–f, NHWD-870 used is NHWD-870-HCl synthesized using Suzuki coupling route. Data are presented as mean ± SEM in (a, b, d, f) and mean + SEM in (c, e). p values were calculated using two-tailed, unpaired t tests. *p < 0.05; **p < 0.01; ***p < 0.001. Source data are provided as a Source Data file.
4–6 weeks old female BALB/c nude mice were used for most experiments, with the exception of 6–8 weeks old female C57BL/6 mice were used for B16F10 experiments, and 6–8 weeks old male BALB/c nude mice and SD rats were used for pharmacokinetic experiments. All animals were purchased from Shanghai SIPPR-Bk Lab Animal Co., Ltd. All animals were housed under a regimen of 12 h light/12 h dark cycles and specific pathogen-free conditions. 5×10^6 NCI-H526, ES-2, MDA-MB231, A2780, A375, B16F10, and TMD-8 cells (0.1 ml) were injected subcutaneously into female nude mice. The melanoma patient-derived xenograft model was derived from a human melanoma sample (BRAF, NARS and NF1 wild type, and p53 mutant) removed from a patient in Xiangya Hospital. Surgically removed tumor fragments were implanted subcutaneously into female NSG mice. When the tumors grew to ~1000 mm^3, they were harvested and cryopreserved or immediately re-implanted for expansion or experiments. Mouse body weight and tumor sizes were measured every 3 days. Once the tumors grew to 150–200 mm^3, mice were treated with the compounds as described in the Figures. 1 × 10^6 A2780 cells (1 ml) were injected into the abdominal cavity of nude mice. Ascitic volume and tumor weight were measured by an electronic balance. All the procedures were evaluated and approved by the Institutional Animal Care and Use Committee of Central South University and Yale University.

[3] = Metabolic stability assay, dog liver microsomes; settings: for Remaining in Dog liver microsomes (Sup Fig.6c): in % (unit assumed)
Experimental: 7. Metabolic stability assay. The metabolic profile of NHWD-870 was determined using mouse, rat, dog, monkey, and human liver microsomes using the protocols […]
No. Compound ID Exat Mass Stock Conc.
1) 100 mM potassium phosphate buffer, PH7.4; 2) 10mM MgCI2
1) Intermediate solution: Dilute 5 μL of compound or control from stock solution (10 mM) with 45 uL DMSO,then mixed with 450 μL 1:1 Methanol/Water (Conc.: 10 0 […]
2) Working solution: Dilute 50 μL from intermediate solution with 450 μL 100 mM potassium phosphate buffer (Conc.: 10 μM, 4.5%MeOH)
(3) NADPH regenerating system (final Isocitric dehydrogenase conc.= 1 unit/mL at […]
1) β-Nicotinamide adenine dinucleotide phosphate, Vendor: sigma Cat. No. N0505
2) Isocitric acid, Vendor: Sigma Cat. No. I1252
3) Isocitric dehydrogenase, Vendor: sigma Cat. No. I2002
(4) Liver microsome solution preparation (final concentration o f 0.5 mg protein/mL) […]
Cold ACN including 100 ng/mL Tolbutamide and 100 ng/mL Labetalol as internal […]
1) Add 10 μL compound or control working solution/well to all plates (T0, T5, T10, T20, T30, T60, NCF60) except matrix blank.
2) Dispense 680 μL/well microsome solution to 96-well plate as reserv oir according to […]
plate map. Then add 80 μL/well to every plate by Apricot, incubate the mixture of microsome solution and compound at 37℃ for about 10 min.
3) Add 10 μL 100 mM potassium phosphate buffer/well to NCF60, incubate at 37℃, […]
4) After pre-warming, dispense 90 μL/well NADPH regenerating system to 96-well plate as reservoir according to the plate map. Then add 10 μL/well to every plate by Apricot to start reaction.
5) Incubate at 37℃, start timer 2.
6) Add 300 (μL/well) stop solution (cold in 4℃, including 100 ng/mL Tolbutamide and 100 ng/mL Labetalol) to terminate the reaction.
7) The sampling plates are shaked for approx 10 min.
8) Samples are centrifuged at 4000 rpm for 20 min under 4℃.
9) While centrifuging, load 8×new 96-well plate with 300 μL HPLC water, then transfer 100 μL supernatant, mixed for LC/MS/MS.
Use equation of first order kinetics to calculate t1/2 and Clin t(mic): […]
Equation of first order kinetics: […]

[4] = Beagle, dog, liver microsomes, pH 7.4

## Cc1nnn(C)c1-c1cnc2c3c4cnn(C)c4ccc3n([C@H](c3ccccc3)C3CCOCC3)c2c1 [NHWD-870]
[1]; A2780, 0.1 nM
  MTT assay, relative cell number: 0.974 and 0.959 and 0.985
[1]; A2780, 1 nM
  MTT assay, relative cell number: 0.705 and 0.725 and 0.731
[1]; A2780, 10 nM
  MTT assay, relative cell number: 0.252 and 0.282 and 0.215
[1]; A2780, 100 nM
  MTT assay, relative cell number: 0.025 and 0.047 and 0.033
[1]; A2780, 500 nM
  MTT assay, relative cell number: 0
[1]; A2780, 1000 nM
  MTT assay, relative cell number: 0
[1]; A2780, 5000 nM
  MTT assay, relative cell number: 0
[1]; A2780, 10000 nM
  MTT assay, relative cell number: 0
[2]
  effect on tumor growth: very strong tumor inhibitive effects
[3]; [4]
  CLint scaled at 1 µM: 95.9 mL/min/kg
  half-life at 1 µM: 20.8 min
[3]; Beagle, dog, microsomes, pH 7.4
  microsomal CLint at 1 µM: 66.6 µL/min/mg
[3]; dog liver microsomes
  Remaining (T=60min): 12.4%
[3]; dog liver microsomes, no cofactor
  Remaining (*NCF=60min): 84.1%
[3]; time 0
  Remaining in Dog liver microsomes (Sup Fig.6c): 100
[3]; time 5
  Remaining in Dog liver microsomes (Sup Fig.6c): 89.9
[3]; time 10
  Remaining in Dog liver microsomes (Sup Fig.6c): 73.773
[3]; time 20
  Remaining in Dog liver microsomes (Sup Fig.6c): 58.934
[3]; time 30
  Remaining in Dog liver microsomes (Sup Fig.6c): 41.202
[3]; time 60
  Remaining in Dog liver microsomes (Sup Fig.6c): 25.67
